Earlier results, collected in patent US12648920B2, “Methods of administering glutathione precursors” (Neuronasal, Inc., priority 2020, dated 2026).

Conditions: oral

orally bioavailable: < 10%
Structure (SMILES): CC(=O)N[C@@H](CS)C(=O)O [NAC, N-acetylcysteine]
